This note sets out measurements from patent US4432993A, “Method of treating obesity hyperglycemia, inflammation and platelet aggregation” (priority 1980, dated 1984).

For assay [1], the system named is inflammation induced in the rat ear by croton oil. Nature of the assay: Anti-inflammatory activity: croton oil induced inflammation of the rat ear. The assay is classed as in vivo. The following applies: 2.0 mg/RAT EAR, 6 hours; activity = significant (5% level) reduction in ear weight vs non-drug treated control. The method, then: The method used is based on that described by G. Tonelli et al (Endocrinology, 77, 625-634, 1965). An inflammation is induced in the rat ear by the application of 50 μl of a 1% solution of croton oil in tetrahydrofuran, test compounds being dissolved in the irritant vehicle. After 6 hours the inflammation is assessed by killing the animals and weighing the ears. Topical anti-inflammatory activity of a compound is generally considered to be shown when a significant (5% level) reduction in ear weight is seen compared to non-drug treated control.

Another assay has as its system genetically obese mice. Nature of the assay: Anti-obesity activity: carcass lipid in genetically obese mice. The assay is classed as in vivo. The method, then: The compounds were administered by oral gavage in water or carboxymethyl-cellulose suspension to genetically obese mice daily for 28 days. At the end of the time the carcass composition was determined.
In assay [2] the test system is Blood platelet response to collagen. Nature of the assay: Platelet aggregation inhibition activity (collagen-induced fall in blood platelet concentration). The class given is in vivo, Male CFLP mice. The following applies: 2 h after p.o. dose; collagen 400 μg/kg i.v.; Aspirin 600 μmol (108 mg)/kg, p < 0.05; Example 3 5 μmol (1.92 mg)/kg, p = 0.01. Here is the method: Male CFLP mice (ca 20 g, n=8) were dosed orally with compound or vehicle (controls) after an overnight fast. Two hours later each mouse received an intravenous dose of collagen (400 μg/kg, pH 6-6.6). Exactly 30 sec. after injection of collagen, each mouse was placed in a chamber of CO2 until respiration ceased. […] Each concentration was expressed as a percent of that obtained in a tail blood sample taken immediately before injection of collagen.

Setting [3] is: p.o. daily for 28 days, Ex. 5 mp 102-5: 4.8 mg/kg, control 21.10, Ex. 10: 8.6 mg/kg, control 23.13.

Structures are written as SMILES.

For the molecule `Cc1ccc(C[C@@H](C)NC[C@@H](O)c2cc3ccccc3o2)cc1` (relative stereo) [Example 5 mp 102-5, N-[2-(4-methylphenyl)-1-methylethyl]-2-(2-benzofuranyl)-2-hydroxyethanamine], the “ACTIVITY (topical anti-inflammatory)” value in assay [1] was “Active”. Moreover, in the assay on genetically obese mice (setting [3]), the “g LIPID/MOUSE, TREATED” value was 16.16 g LIPID/MOUSE.
`CC(=O)Oc1ccccc1C(=O)O` [Aspirin, reference compound]: the “% Inhibition of response to collagen” value in assay [2] is listed as 29%.
As for `Cc1ccc(CC(C)NCC(O)c2cc3ccccc3o2)cc1` (stereo not drawn) [Example 1, N-[2-(4-Methylphenyl)-1-methylethyl]-2-(2-benzofuranyl)-2-hydroxy ethanamine], the “g LIPID/MOUSE, TREATED” value in the assay on genetically obese mice (4.8 mg/kg p.o. daily, 15 days only, control 16.25) came out at 13.36 g LIPID/MOUSE.
Regarding `COC(=O)COc1ccc(CC(C)NCC(O)c2cc3ccccc3o2)cc1` (stereo not drawn) [Example 3, N-[2-(4-Carbomethoxymethoxyphenyl)-1-methylethyl]-2-(2-benzofuranyl)-2-hydroxyethanamine], the “% Inhibition of response to collagen” value in assay [2] was determined as 29%.
Regarding `Cc1ccc(CCCNCC(O)c2cc3ccccc3o2)cc1` (stereo not drawn) [Example 10, N-[3-(4-Methylphenyl)propyl]-2-(2-benzofuranyl)-2-hydroxyethanamine], in the assay with genetically obese mice (setting [3]), the “g LIPID/MOUSE, TREATED” value was found to be 19.72 g LIPID/MOUSE.
